Experimental findings from patent US12338243B2, “P2X7 modulators” (JANSSEN PHARMACEUTICA NV, priority 2014, dated 2025) are described below.

By IC50 is commonly meant the midpoint of a concentration-inhibition curve.

Structures are written as SMILES.

Assay [1] has as its target T1, rat P2X7 (Rattus norvegicus, UniProt Q64663).
T1 sequence (Q64663 1-595): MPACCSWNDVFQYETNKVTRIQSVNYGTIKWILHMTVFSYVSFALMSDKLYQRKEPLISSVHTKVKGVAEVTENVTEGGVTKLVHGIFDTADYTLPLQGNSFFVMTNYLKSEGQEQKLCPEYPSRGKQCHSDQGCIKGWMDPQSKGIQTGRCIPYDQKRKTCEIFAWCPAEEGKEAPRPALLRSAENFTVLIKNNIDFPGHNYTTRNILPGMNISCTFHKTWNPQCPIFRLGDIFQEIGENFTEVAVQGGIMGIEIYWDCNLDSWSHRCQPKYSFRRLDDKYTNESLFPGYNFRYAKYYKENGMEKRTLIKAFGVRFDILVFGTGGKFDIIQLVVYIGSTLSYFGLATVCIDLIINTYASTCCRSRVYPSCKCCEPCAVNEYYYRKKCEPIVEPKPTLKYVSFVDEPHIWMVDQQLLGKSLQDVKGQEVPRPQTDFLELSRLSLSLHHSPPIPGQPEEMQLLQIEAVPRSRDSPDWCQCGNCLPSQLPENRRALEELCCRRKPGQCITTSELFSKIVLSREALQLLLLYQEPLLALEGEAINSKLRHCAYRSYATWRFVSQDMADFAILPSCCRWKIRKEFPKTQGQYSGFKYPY
Briefly: Ca2+ flux (FLIPR) in 1321N1 cells expressing recombinant rat P2X7 channel. To be noted: FLIPR (rat) IC50 (μM), 250 μM BzATP. For orientation: Calcium flux is commonly read through the fluorescence of an indicator in the cells.

The target in assay [2] is T2, P2X7 (Homo sapiens, UniProt Q99572).
T2 sequence (Q99572 1-595): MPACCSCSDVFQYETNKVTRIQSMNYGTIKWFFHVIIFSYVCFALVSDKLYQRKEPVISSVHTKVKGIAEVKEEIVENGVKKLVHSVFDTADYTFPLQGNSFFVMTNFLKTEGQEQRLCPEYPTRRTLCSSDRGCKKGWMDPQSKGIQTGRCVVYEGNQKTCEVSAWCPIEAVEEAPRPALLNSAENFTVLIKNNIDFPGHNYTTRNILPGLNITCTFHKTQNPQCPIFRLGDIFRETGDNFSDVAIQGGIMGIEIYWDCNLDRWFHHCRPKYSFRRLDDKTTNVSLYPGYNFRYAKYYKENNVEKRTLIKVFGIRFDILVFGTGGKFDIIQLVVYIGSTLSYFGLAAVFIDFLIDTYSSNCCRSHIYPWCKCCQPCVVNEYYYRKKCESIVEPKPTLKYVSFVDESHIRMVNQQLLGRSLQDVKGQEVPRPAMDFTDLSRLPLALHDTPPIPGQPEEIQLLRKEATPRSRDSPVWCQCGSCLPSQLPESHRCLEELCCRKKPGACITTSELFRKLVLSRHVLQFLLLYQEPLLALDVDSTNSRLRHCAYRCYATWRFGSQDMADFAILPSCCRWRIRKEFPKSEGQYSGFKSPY
Briefly: Ca2+ flux (FLIPR) in 1321N1 cells expressing recombinant human P2X7 channel. The assay is classed as cell-based. Details: expressed in transfected cells; host or cells: 1321N1 cells. As to conditions: 250 μM BzATP. As for the experimental part:
P2X7 Antagonism in Recombinant Human P2X7 Cells or Recombinant Rat P2X7 Cells: (a) Ca^2+ Flux and (b) Radioligand Binding
(a) Ca^2+ flux: 1321N1 cells expressing the recombinant human or rat P2X7 channel was cultured in HyQ DME/(HyClone/Dulbecco's Modified Eagle Medium) high glucose supplemented with 10% Fetal Bovine Serum (FBS) and appropriate selection marker. Cells were seeded at a density of 25000 cells/well (96-well clear bottom black walled plates) in 100 μl volume/well. On the day of the experiment, cell plates were washed with assay buffer, containing (in mM): 130 NaCl, 2 KCl, 1 CaCl2), 1 MgCl2, 10 HEPES, 5 glucose; pH 7.40 and 300 mOs. After the wash, cells were loaded with the Calcium-4 dye (Molecular Device) and incubated in the dark for 60 minutes. Test compounds were prepared at 250× the test concentration in neat DMSO. Intermediate 96-well compound plates were prepared by transferring 1.2 μL of the compound into 300 μL of assay buffer. A further 3× dilution occurred when transferring 50 μL/well of the compound plate to 100 μL/well in the cell plate. Cells were incubated with test compounds and dye for 30 minutes. […] The fluorescence change was measured 180 seconds after adding the agonist.

`O=C(c1cccc(C(F)(F)F)c1Cl)N1CCn2c(nnc2C(F)(F)F)C1c1ccn[nH]1` (racemic) [Example 126, (±)-(8-(1H-pyrazol-5-yl)-3-(trifluoromethyl)-5,6-dihydro-[1,2,4]triazolo[4,3-a]pyrazin-7(8H)-yl)(2-chloro-3-(trifluoromethyl)phenyl)methanone]: the IC50 in assay [1] was above 10 µM; in assay [2], 1.55 µM.
Taken in the same sequence, the figures for `CC1Cn2c(nnc2C(F)(F)F)C(c2ccccc2)N1C(=O)c1cccc(C(F)(F)F)c1Cl` (racemic) [Example 130, (±)-(2-chloro-3-(trifluoromethyl)phenyl)(6-methyl-8-phenyl-3-(trifluoromethyl)-5,6-dihydro-[1,2,4]triazolo[4,3-a]pyrazin-7(8H)-yl)methanone] were above 10 µM and above 10 µM.
For `C[C@H]1Cn2c(nnc2-c2ccc(C(F)(F)F)cc2)CN1C(=O)c1cccc(Cl)c1Cl` [Example 26, (S)-(2,3-dichlorophenyl)(6-methyl-3-(4-(trifluoromethyl)phenyl)-5,6-dihydro-[1,2,4]triazolo[4,3-a]pyrazin-7(8H)-yl)methanone], the IC50 in assay [1] was determined as 3.95 µM; in assay [2] it was 4.13 µM.
For `C[C@H]1Cn2c(nnc2-c2ccc(C(F)(F)F)cc2)CN1C(=O)c1cccc(C(F)(F)F)c1Cl` [Example 27, (S)-(2-chloro-3-(trifluoromethyl)phenyl)(6-methyl-3-(4-(trifluoromethyl)phenyl)-5,6-dihydro-[1,2,4]triazolo[4,3-a]pyrazin-7(8H)-yl)methanone], in that order: 2.96 µM and 1.66 µM.
For `C[C@H]1Cn2c(nnc2-c2ccc(C(F)(F)F)c(F)c2)CN1C(=O)c1cccc(Cl)c1Cl` [Example 28, (S)-(2,3-dichlorophenyl)(3-(3-fluoro-4-(trifluoromethyl)phenyl)-6-methyl-5,6-dihydro-[1,2,4]triazolo[4,3-a]pyrazin-7(8H)-yl)methanone], in that order: 3.78 µM and 7.48 µM.
Taken in the same sequence, the figures for `C[C@H]1Cn2c(nnc2-c2ccc(C(F)(F)F)c(F)c2)CN1C(=O)c1cccc(C(F)(F)F)c1Cl` [Example 29, (S)-(2-chloro-3-(trifluoromethyl)phenyl)(3-(3-fluoro-4-(trifluoromethyl)phenyl)-6-methyl-5,6-dihydro-[1,2,4]triazolo[4,3-a]pyrazin-7(8H)-yl)methanone] were 2.97 µM and 3.55 µM.
As for `CC1CN(C(=O)c2cccc(Cl)c2Cl)Cc2nnc(-c3ccccn3)n21` (centres unmarked) [Example 34, (2,3-dichlorophenyl)(5-methyl-3-(pyridin-2-yl)-5,6-dihydro-[1,2,4]triazolo[4,3-a]pyrazin-7(8H)-yl)methanone], the values for the IC50 in assay [1] and in assay [2] were above 10 µM and 12.9 µM, respectively.
For `CC1c2nnc(-c3ccc(C(F)(F)F)cc3)n2CCN1C(=O)c1cccc(C(F)(F)F)c1Cl` (centres unmarked) [Example 35, (2-chloro-3-(trifluoromethyl)phenyl)(8-methyl-3-(4-(trifluoromethyl)phenyl)-5,6-dihydro-[1,2,4]triazolo[4,3-a]pyrazin-7(8H)-yl)methanone], in that order: above 10 µM and above 10 µM.
Turning to `C[C@H]1Cn2c(nnc2-c2ccccc2F)CN1C(=O)c1cccc(C(F)(F)F)c1Cl` [Example 39, (S)-(2-chloro-3-(trifluoromethyl)phenyl)(3-(2-fluorophenyl)-6-methyl-5,6-dihydro-[1,2,4]triazolo[4,3-a]pyrazin-7(8H)-yl)methanone], the results for the IC50 in assay [1] and in assay [2] were 9.44 µM and 2.43 µM, respectively.
Taken in the same sequence, the figures for `C[C@H]1Cn2c(nnc2-c2ccccc2F)CN1C(=O)c1ccc(F)c(Cl)c1Cl` [Example 40, (S)-(2,3-dichloro-4-fluorophenyl)(3-(2-fluorophenyl)-6-methyl-5,6-dihydro-[1,2,4]triazolo[4,3-a]pyrazin-7(8H)-yl)methanone] were 14.8 µM and 9.04 µM.
`C[C@H]1Cn2c(nnc2-c2cccc(F)c2)CN1C(=O)c1cccc(Cl)c1Cl` [Example 41, (S)-(2,3-dichlorophenyl)(3-(3-fluorophenyl)-6-methyl-5,6-dihydro-[1,2,4]triazolo[4,3-a]pyrazin-7(8H)-yl)methanone]: the figures for the IC50 in assay [1] and in assay [2] were 10.7 µM and above 10 µM, respectively.
For `C[C@H]1Cn2c(nnc2-c2cccc(F)c2F)CN1C(=O)c1cccc(Cl)c1Cl` [Example 44, (S)-(2,3-dichlorophenyl)(3-(2,3-difluorophenyl)-6-methyl-5,6-dihydro-[1,2,4]triazolo[4,3-a]pyrazin-7(8H)-yl)methanone], in that order: 1.46 µM and 3.92 µM.
Taken in the same sequence, the figures for `C[C@H]1Cn2c(nnc2-c2cccc(F)c2F)CN1C(=O)c1cccc(C(F)(F)F)c1Cl` [Example 45, (S)-(2-chloro-3-(trifluoromethyl)phenyl)(3-(2,3-difluorophenyl)-6-methyl-5,6-dihydro-[1,2,4]triazolo[4,3-a]pyrazin-7(8H)-yl)methanone] were 0.408 µM and 1.82 µM.
Taken in the same sequence, the figures for `C[C@H]1Cn2c(nnc2-c2cccc(F)c2F)CN1C(=O)c1ccc(F)c(Cl)c1Cl` [Example 46, (S)-(2,3-dichloro-4-fluorophenyl)(3-(2,3-difluorophenyl)-6-methyl-5,6-dihydro-[1,2,4]triazolo[4,3-a]pyrazin-7(8H)-yl)methanone] were 2.42 µM and 2.54 µM.
For `C[C@H]1Cn2c(nnc2-c2ccc(F)c(F)c2)CN1C(=O)c1cccc(Cl)c1Cl` [Example 47, (S)-(2,3-dichlorophenyl)(3-(3,4-difluorophenyl)-6-methyl-5,6-dihydro-[1,2,4]triazolo[4,3-a]pyrazin-7(8H)-yl)methanone], the IC50 in assay [1] was found to be 1.61 µM; in assay [2], 10.4 µM.
On to `C[C@H]1Cn2c(nnc2-c2ccc(F)c(F)c2)CN1C(=O)c1cccc(C(F)(F)F)c1Cl` [Example 48, (S)-(2-chloro-3-(trifluoromethyl)phenyl)(3-(3,4-difluorophenyl)-6-methyl-5,6-dihydro-[1,2,4]triazolo[4,3-a]pyrazin-7(8H)-yl)methanone], for which the results for the IC50 in assay [1] and in assay [2] were 0.637 µM and 1.66 µM, respectively.
Turning to `C[C@H]1Cn2c(nnc2-c2ccc(F)c(F)c2)CN1C(=O)c1ccc(F)c(Cl)c1Cl` [Example 49, (S)-(2,3-dichloro-4-fluorophenyl)(3-(3,4-difluorophenyl)-6-methyl-5,6-dihydro-[1,2,4]triazolo[4,3-a]pyrazin-7(8H)-yl)methanone], the results for the IC50 in assay [1] and in assay [2] were 2.73 µM and 4.11 µM, respectively.
Take `C[C@H]1Cn2c(nnc2-c2ccc(F)cc2F)CN1C(=O)c1cccc(C(F)(F)F)c1Cl` [Example 51, (S)-(2-chloro-3-(trifluoromethyl)phenyl)(3-(2,4-difluorophenyl)-6-methyl-5,6-dihydro-[1,2,4]triazolo[4,3-a]pyrazin-7(8H)-yl)methanone]: the values for the IC50 in assay [1] and in assay [2] were 0.578 µM and 1.93 µM, respectively.
Regarding `C[C@H]1Cn2c(nnc2-c2ccc(F)cc2F)CN1C(=O)c1ccc(F)c(Cl)c1Cl` [Example 52, (S)-(2,3-dichloro-4-fluorophenyl)(3-(2,4-difluorophenyl)-6-methyl-5,6-dihydro-[1,2,4]triazolo[4,3-a]pyrazin-7(8H)-yl)methanone], the results for the IC50 in assay [1] and in assay [2] were 2.09 µM and 7.05 µM, respectively.
